# According to PubChem BioAssay (NCI):
#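 Protocol summary: plate cells (96-well), add compound at 5 concentrations, incubate 48 h, interpolate endpoints linearly. TGI: total growth inhibition.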
# Experiments:
# Experiment in all cases: inhibition of tumour cell growth, NCI panel, 48 h
# OVCAR-3 ovarian = system: OVCAR-3 ovarian
# SK-MEL-2 melanoma = system: SK-MEL-2 melanoma
# UACC-62 melanoma = system: UACC-62 melanoma
# HCT-116 colon = system: HCT-116 colon
# RXF 393 renal = system: RXF 393 renal
# SF-268 CNS = system: SF-268 CNS
# HOP-92 NSCLC = system: HOP-92 NSCLC
# SK-MEL-28 melanoma = system: SK-MEL-28 melanoma
# MCF7 breast = system: MCF7 breast
# COLO 205 colon = system: COLO 205 colon
# SNB-19 CNS = system: SNB-19 CNS
# LOX IMVI melanoma = system: LOX IMVI melanoma
# ACHN renal = system: ACHN renal
# OVCAR-5 ovarian = system: OVCAR-5 ovarian
# NCI/ADR-RES ovarian = system: NCI/ADR-RES ovarian
# SK-OV-3 ovarian = system: SK-OV-3 ovarian
# KM12 colon = system: KM12 colon
# HT29 colon = system: HT29 colon
# NCI-H460 lung = system: NCI-H460 lung
# NCI-H23 lung = system: NCI-H23 lung
# RPMI-8226 leukemia = system: RPMI-8226 leukemia
# HL-60(TB) leukemia = system: HL-60(TB) leukemia
# MOLT-4 leukemia = system: MOLT-4 leukemia
# EKVX NSCLC = system: EKVX NSCLC
# SF-295 CNS = system: SF-295 CNS
# T-47D breast = system: T-47D breast
# IGROV1 ovarian = system: IGROV1 ovarian
# OVCAR-8 ovarian = system: OVCAR-8 ovarian
# 786-0 renal = system: 786-0 renal
# A549 NSCLC = system: A549 NSCLC
# SW-620 colon = system: SW-620 colon
# PC-3 prostate = system: PC-3 prostate
# K-562 leukemia = system: K-562 leukemia
# SK-MEL-5 melanoma = system: SK-MEL-5 melanoma
# MALME-3M melanoma = system: MALME-3M melanoma
# MDA-N = system: MDA-N
# MDA-MB-231 breast = system: MDA-MB-231 breast
# UO-31 renal = system: UO-31 renal
# MDA-MB-435 = system: MDA-MB-435
# U251 CNS = system: U251 CNS
# BT-549 breast = system: BT-549 breast
# HCT-15 colon = system: HCT-15 colon
# HCC-2998 colon = system: HCC-2998 colon
# TK-10 renal = system: TK-10 renal
# NCI-H522 lung = system: NCI-H522 lung
# CCRF-CEM leukemia = system: CCRF-CEM leukemia
# CAKI-1 renal = system: CAKI-1 renal
# SN12C renal = system: SN12C renal
# UACC-257 melanoma = system: UACC-257 melanoma
# HOP-62 NSCLC = system: HOP-62 NSCLC
# M14 melanoma = system: M14 melanoma
# SR leukemia = system: SR leukemia
# DU-145 prostate = system: DU-145 prostate
# A498 renal = system: A498 renal
# SF-539 CNS = system: SF-539 CNS
# NCI-H226 lung = system: NCI-H226 lung
# OVCAR-4 ovarian = system: OVCAR-4 ovarian
# HS 578T breast = system: HS 578T breast
# SNB-75 CNS = system: SNB-75 CNS
smiles,measurement,setting,value
COc1ccc2c(c1)CC[C@@H]1C2CC[C@]2(C)OC(=O)CCC12 (stereo partly drawn),TGI,OVCAR-3 ovarian,31.4 µM
same,TGI,SK-MEL-2 melanoma,66.5 µM
same,TGI,UACC-62 melanoma,> 100 µM
same,TGI,HCT-116 colon,21.6 µM
same,TGI,RXF 393 renal,29 µM
same,TGI,SF-268 CNS,26.6 µM
same,TGI,HOP-92 NSCLC,40.6 µM
same,TGI,SK-MEL-28 melanoma,34.3 µM
same,TGI,MCF7 breast,35.2 µM
same,TGI,COLO 205 colon,> 100 µM
same,TGI,SNB-19 CNS,38.2 µM
same,TGI,LOX IMVI melanoma,19.4 µM
same,TGI,ACHN renal,> 100 µM
same,TGI,OVCAR-5 ovarian,30.9 µM
same,TGI,NCI/ADR-RES ovarian,33.4 µM
same,TGI,SK-OV-3 ovarian,> 100 µM
same,TGI,KM12 colon,> 100 µM
same,TGI,HT29 colon,59.2 µM
same,TGI,NCI-H460 lung,> 100 µM
same,TGI,NCI-H23 lung,38.4 µM
same,TGI,RPMI-8226 leukemia,> 100 µM
same,TGI,HL-60(TB) leukemia,> 100 µM
same,TGI,MOLT-4 leukemia,> 100 µM
same,TGI,EKVX NSCLC,21.3 µM
same,TGI,SF-295 CNS,46.1 µM
same,TGI,T-47D breast,> 100 µM
same,TGI,IGROV1 ovarian,> 100 µM
same,TGI,OVCAR-8 ovarian,28.4 µM
same,TGI,786-0 renal,17.7 µM
same,TGI,A549 NSCLC,> 100 µM
same,TGI,SW-620 colon,24.3 µM
same,TGI,PC-3 prostate,61.1 µM
same,TGI,K-562 leukemia,> 100 µM
same,TGI,SK-MEL-5 melanoma,29.5 µM
same,TGI,MALME-3M melanoma,36 µM
same,TGI,MDA-N,62.1 µM
same,TGI,MDA-MB-231 breast,11.5 µM
same,TGI,UO-31 renal,48.5 µM
same,TGI,MDA-MB-435,> 100 µM
same,TGI,U251 CNS,21 µM
same,TGI,BT-549 breast,23.6 µM
same,TGI,HCT-15 colon,> 100 µM
same,TGI,HCC-2998 colon,> 100 µM
same,TGI,TK-10 renal,97.8 µM
same,TGI,NCI-H522 lung,19.4 µM
same,TGI,CCRF-CEM leukemia,> 100 µM
same,TGI,CAKI-1 renal,> 100 µM
same,TGI,SN12C renal,29.1 µM
same,TGI,UACC-257 melanoma,32.1 µM
same,TGI,HOP-62 NSCLC,65.3 µM
same,TGI,M14 melanoma,36 µM
same,TGI,SR leukemia,> 100 µM
same,TGI,DU-145 prostate,> 100 µM
same,TGI,A498 renal,> 100 µM
same,TGI,SF-539 CNS,30.4 µM
same,TGI,NCI-H226 lung,36.7 µM
same,TGI,OVCAR-4 ovarian,28.1 µM
same,TGI,HS 578T breast,60.6 µM
CC1CCN(c2nnc(Cl)cc2C(=O)c2ccccc2)CC1,TGI,OVCAR-3 ovarian,71 µM
same,TGI,SK-MEL-2 melanoma,40.8 µM
same,TGI,UACC-62 melanoma,> 100 µM
same,TGI,HCT-116 colon,> 100 µM
same,TGI,RXF 393 renal,53.9 µM
same,TGI,SF-268 CNS,3.04 µM
same,TGI,HOP-92 NSCLC,55.5 µM
same,TGI,SK-MEL-28 melanoma,> 100 µM
same,TGI,MCF7 breast,36.9 µM
same,TGI,COLO 205 colon,46.9 µM
same,TGI,SNB-19 CNS,92.7 µM
same,TGI,LOX IMVI melanoma,> 100 µM
same,TGI,ACHN renal,> 100 µM
same,TGI,OVCAR-5 ovarian,> 100 µM
same,TGI,NCI/ADR-RES ovarian,> 100 µM
same,TGI,KM12 colon,52.6 µM
same,TGI,HT29 colon,39.5 µM
same,TGI,NCI-H460 lung,> 100 µM
same,TGI,NCI-H23 lung,82.4 µM
same,TGI,HL-60(TB) leukemia,> 100 µM
same,TGI,MOLT-4 leukemia,55 µM
same,TGI,EKVX NSCLC,> 100 µM
same,TGI,SF-295 CNS,83.9 µM
same,TGI,T-47D breast,> 100 µM
same,TGI,IGROV1 ovarian,> 100 µM
same,TGI,OVCAR-8 ovarian,> 100 µM
same,TGI,786-0 renal,> 100 µM
same,TGI,A549 NSCLC,> 100 µM
same,TGI,SW-620 colon,59.6 µM
same,TGI,PC-3 prostate,> 100 µM
same,TGI,K-562 leukemia,> 100 µM
same,TGI,SK-MEL-5 melanoma,31.1 µM
same,TGI,MDA-N,53.2 µM
same,TGI,MDA-MB-231 breast,96.2 µM
same,TGI,UO-31 renal,> 100 µM
same,TGI,MDA-MB-435,56.9 µM
same,TGI,U251 CNS,> 100 µM
same,TGI,BT-549 breast,> 100 µM
same,TGI,HCT-15 colon,> 100 µM
same,TGI,HCC-2998 colon,96.6 µM
same,TGI,TK-10 renal,> 100 µM
same,TGI,NCI-H522 lung,77.7 µM
same,TGI,CCRF-CEM leukemia,45.9 µM
same,TGI,CAKI-1 renal,34 µM
same,TGI,SN12C renal,> 100 µM
same,TGI,UACC-257 melanoma,63.2 µM
same,TGI,HOP-62 NSCLC,> 100 µM
same,TGI,M14 melanoma,95.5 µM
same,TGI,SR leukemia,45.6 µM
same,TGI,SNB-75 CNS,70 µM
same,TGI,DU-145 prostate,> 100 µM
same,TGI,A498 renal,> 100 µM
same,TGI,SF-539 CNS,77.4 µM
same,TGI,OVCAR-4 ovarian,> 100 µM
same,TGI,HS 578T breast,88.7 µM
